Test system: SETVI (Setaria viridis, Green foxtail)
Experiment: post-emergence greenhouse experiment, herbicidal action (synergism by Colby)
Format: in vivo

CS(=O)(=O)c1cc(C(F)(F)F)ccc1C(=O)c1cnoc1C1CC1 [Isoxaflutole, isoxaflutole]
Herbicidal action against SETVI, Found (growth stage 13 (6 to 10 cm), scale 0 to 100, test period 20 days, isoxaflutole 25 g/ha alone): 20
Herbicidal action against SETVI, Found (growth stage 13, scale 0 to 100, 20 days, isoxaflutole 12.5 g/ha alone): 20

From patent US20210289787A1, “HERBICIDAL MIXTURES COMPRISING ISOXAFLUTOLE, TRIFLUDIMOXAZIN AND AN IMIDAZOLINONE HERBICIDE; AND THEIR USE IN SOYBEAN AND COTTON CULTURES” (BASF SE, priority 2018, published 2021)
